Results from PubChem BioAssay AID2060882 (Molecular Pharmacology Branch, DTP, NCI, 2025).

Tested on: 898857-211-R-J1-PDC complex spheroids, growth % test/control
Assay: Anticancer human tumor 898857-211-R-J1-PDC patient-derived melanoma cell line growth inhibition [RAS]
Conditions: for IC50: curve of first compound; for viability, T/C: stronger effect = lower value
How it was run: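 Multi-cell-type spheroids: tumor cells plus HUVEC endothelial cells and mesenchymal stem cells. RAS-pathway inhibitors were combined with targeted agents, each dosed in half-log steps down from clinical Cmax, or from 10 microM when Cmax was unknown.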

[1] = second compound 0.00316 µM, first compound 0.0316 µM
[2] = second compound 0.00316 µM, first compound 0.1 µM
[3] = second compound 0.00316 µM, first compound 0.316 µM
[4] = second compound 0.00316 µM, first compound 1 µM
[5] = second compound 0.00316 µM, first compound 3.16 µM
[6] = second compound 0.00316 µM, first compound 10 µM
[7] = second compound 0.01 µM, first compound 0.0316 µM
[8] = second compound 0.01 µM, first compound 0.1 µM
[9] = second compound 0.01 µM, first compound 0.316 µM
[10] = second compound 0.01 µM, first compound 1 µM
[11] = second compound 0.01 µM, first compound 3.16 µM
[12] = second compound 0.01 µM, first compound 10 µM
[13] = second compound 0.0316 µM, first compound 0.0316 µM
[14] = second compound 0.0316 µM, first compound 0.1 µM
[15] = second compound 0.0316 µM, first compound 0.316 µM
[16] = second compound 0.0316 µM, first compound 1 µM
[17] = second compound 0.0316 µM, first compound 3.16 µM
[18] = second compound 0.0316 µM, first compound 10 µM
[19] = second compound 0.1 µM, first compound 0.0316 µM
[20] = second compound 0.1 µM, first compound 0.1 µM
[21] = second compound 0.1 µM, first compound 0.316 µM
[22] = second compound 0.1 µM, first compound 1 µM
[23] = second compound 0.1 µM, first compound 3.16 µM
[24] = second compound 0.1 µM, first compound 10 µM
[25] = second compound 0.316 µM, first compound 0.0316 µM
[26] = second compound 0.316 µM, first compound 0.1 µM
[27] = second compound 0.316 µM, first compound 0.316 µM
[28] = second compound 0.316 µM, first compound 1 µM
[29] = second compound 0.316 µM, first compound 3.16 µM
[30] = second compound 0.316 µM, first compound 10 µM
[31] = second compound 1 µM, first compound 0.0316 µM
[32] = second compound 1 µM, first compound 0.1 µM
[33] = second compound 1 µM, first compound 0.316 µM
[34] = second compound 1 µM, first compound 1 µM
[35] = second compound 1 µM, first compound 3.16 µM
[36] = second compound 1 µM, first compound 10 µM
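Note: spheroids exposed to compound for seven days before readout.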
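Throughout, for viability, T/C: 100% = DMSO vehicle control wells.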

## CCC(CC)c1cc(NC2CCC(N)C2)n2nccc2n1 (stereo unspecified) + C=CC(=O)N1CCN(c2nc(OCC3CCCN3C)nc3c(F)c(-c4nc(N)cc(C)c4C(F)(F)F)c(Cl)cc23)C(C)C1
Second compound 0.00316 µM
  IC50: 0.806 µM
Second compound 0.01 µM
  IC50: 0.851 µM
Second compound 0.0316 µM
  IC50: 1.13 µM
Second compound 0.1 µM
  IC50: 1.22 µM
Second compound 0.316 µM
  IC50: 1.3 µM
Second compound 1 µM
  IC50: 1.16 µM
[1]
  viability, T/C: 119%
[2]
  viability, T/C: 97.5%
[3]
  viability, T/C: 81.5%
[4]
  viability, T/C: 49.1%
[5]
  viability, T/C: 1.15%
[6]
  viability, T/C: 0.2%
[7]
  viability, T/C: 114%
[8]
  viability, T/C: 97.8%
[9]
  viability, T/C: 81.7%
[10]
  viability, T/C: 51%
[11]
  viability, T/C: 0.97%
[12]
  viability, T/C: 0.25%
[13]
  viability, T/C: 104%
[14]
  viability, T/C: 104%
[15]
  viability, T/C: 102%
[16]
  viability, T/C: 56%
[17]
  viability, T/C: 1.12%
[18]
  viability, T/C: 0.25%
[19]
  viability, T/C: 95.5%
[20]
  viability, T/C: 110%
[21]
  viability, T/C: 101%
[22]
  viability, T/C: 60%
[23]
  viability, T/C: 1.01%
[24]
  viability, T/C: 0.21%
[25]
  viability, T/C: 123%
[26]
  viability, T/C: 119%
[27]
  viability, T/C: 104%
[28]
  viability, T/C: 66.3%
[29]
  viability, T/C: 1.11%
[30]
  viability, T/C: 0.26%
[31]
  viability, T/C: 120%
[32]
  viability, T/C: 117%
[33]
  viability, T/C: 101%
[34]
  viability, T/C: 59.7%
[35]
  viability, T/C: 0.94%
[36]
  viability, T/C: 0.24%

## Cc1nc(N2CCC3(CC2)COC(C)C3N)c(CO)nc1Sc1ccnc(N)c1Cl (stereo unspecified) + C=CC(=O)N1CCN(c2nc(OCC3CCCN3C)nc3c(F)c(-c4nc(N)cc(C)c4C(F)(F)F)c(Cl)cc23)C(C)C1
Second compound 0.00316 µM
  IC50: > 10 µM
Second compound 0.01 µM
  IC50: > 10 µM
Second compound 0.0316 µM
  IC50: > 10 µM
Second compound 0.1 µM
  IC50: > 10 µM
Second compound 0.316 µM
  IC50: > 10 µM
Second compound 1 µM
  IC50: > 10 µM
[1]
  viability, T/C: 101%
[2]
  viability, T/C: 92.4%
[3]
  viability, T/C: 89%
[4]
  viability, T/C: 82.2%
[5]
  viability, T/C: 98.5%
[6]
  viability, T/C: 92.1%
[7]
  viability, T/C: 97.7%
[8]
  viability, T/C: 94.6%
[9]
  viability, T/C: 80.8%
[10]
  viability, T/C: 91%
[11]
  viability, T/C: 96.8%
[12]
  viability, T/C: 81.1%
[13]
  viability, T/C: 104%
[14]
  viability, T/C: 102%
[15]
  viability, T/C: 95.4%
[16]
  viability, T/C: 98.5%
[17]
  viability, T/C: 97.3%
[18]
  viability, T/C: 99.5%
[19]
  viability, T/C: 96.4%
[20]
  viability, T/C: 102%
[21]
  viability, T/C: 95.6%
[22]
  viability, T/C: 94%
[23]
  viability, T/C: 96.3%
[24]
  viability, T/C: 91.7%
[25]
  viability, T/C: 110%
[26]
  viability, T/C: 102%
[27]
  viability, T/C: 107%
[28]
  viability, T/C: 103%
[29]
  viability, T/C: 98.1%
[30]
  viability, T/C: 93.5%
[31]
  viability, T/C: 110%
[32]
  viability, T/C: 106%
[33]
  viability, T/C: 92.9%
[34]
  viability, T/C: 97.4%
[35]
  viability, T/C: 107%
[36]
  viability, T/C: 82.2%

## NC1c2ccccc2OC12CCN(c1cnc3c(N4CCCc5ncccc54)n[nH]c3n1)CC2 (stereo unspecified) + C=CC(=O)N1CCN(c2nc(OCC3CCCN3C)nc3c(F)c(-c4nc(N)cc(C)c4C(F)(F)F)c(Cl)cc23)C(C)C1
Second compound 0.00316 µM
  IC50: > 10 µM
Second compound 0.01 µM
  IC50: > 10 µM
Second compound 0.0316 µM
  IC50: > 10 µM
Second compound 0.1 µM
  IC50: > 10 µM
Second compound 0.316 µM
  IC50: > 10 µM
Second compound 1 µM
  IC50: > 10 µM
[1]
  viability, T/C: 92.5%
[2]
  viability, T/C: 98%
[3]
  viability, T/C: 92.8%
[4]
  viability, T/C: 89.2%
[5]
  viability, T/C: 79.9%
[6]
  viability, T/C: 75%
[7]
  viability, T/C: 94.9%
[8]
  viability, T/C: 85.9%
[9]
  viability, T/C: 87.2%
[10]
  viability, T/C: 83.3%
[11]
  viability, T/C: 81.6%
[12]
  viability, T/C: 78.6%
[13]
  viability, T/C: 88.3%
[14]
  viability, T/C: 85.8%
[15]
  viability, T/C: 88.2%
[16]
  viability, T/C: 86.2%
[17]
  viability, T/C: 87.3%
[18]
  viability, T/C: 71.8%
[19]
  viability, T/C: 98.6%
[20]
  viability, T/C: 89.8%
[21]
  viability, T/C: 97.3%
[22]
  viability, T/C: 99.5%
[23]
  viability, T/C: 103%
[24]
  viability, T/C: 74.1%
[25]
  viability, T/C: 112%
[26]
  viability, T/C: 103%
[27]
  viability, T/C: 101%
[28]
  viability, T/C: 107%
[29]
  viability, T/C: 102%
[30]
  viability, T/C: 76%
[31]
  viability, T/C: 116%
[32]
  viability, T/C: 93.6%
[33]
  viability, T/C: 108%
[34]
  viability, T/C: 94.2%
[35]
  viability, T/C: 87.3%
[36]
  viability, T/C: 58%
